Peptide text beside a SMILES is read from it.
How the values were obtained:
[1] = biological target: HLA-B1502 (Homo sapiens, UniProt P01889, A329T/A93T/A95T/C349S/D201E/D98Y/E187L/E204Q/E69M/E70A/H137Y/K202T/L119I/Q94N/R155S/R180L/S121R/S35A/S48A/T118I/V306I/V36M/Y140S/Y91S); assay: Competitive peptide binding assay, CIR-B1502; settings: HMy2.CIR-B1502 cells, reference Cy5-[…], class from inhibition at 5 and 15 μM, flow cytometry MFI; read-out: Binding affinity with HLA-B1502
Procedure: (§1) Then, competitive peptide binding assays were performed.

[2] = biological target: HLA-B4601 (Homo sapiens, UniProt P01889, A329T/A93R/C349S/D201E/E100V/E187L/E204Q/E69M/E70A/I90K/K202T/N87E/R155S/R180W/S121R/S35A/S48A/V306I/V36M/Y140S); assay: Competitive peptide binding assay, CIR-B4601; settings: HMy2.CIR-B4601 cells, reference Cy5-[…], class from inhibition at 5 and 15 μM, flow cytometry MFI; read-out: Binding affinity with HLA-B4601
Procedure: as §1

[3] = biological target: HLA-B1501 (Homo sapiens, UniProt P01889, A329T/A93T/A95T/C349S/D201E/D98Y/E187L/E204Q/E69M/E70A/K202T/N87E/Q94N/R155S/R180W/S121R/S35A/S48A/V306I/V36M/Y140S/Y91S); assay: Competitive peptide binding assay, CIR-B1501; settings: HMy2.CIR-B1501 cells, reference Cy5-[…], class from inhibition at 5 and 15 μM, flow cytometry MFI; read-out: Binding affinity with HLA-B1501
Procedure: as §1

[4] = biological target: HLA-B4801 (Homo sapiens, UniProt P01889, A269T/A93T/A95T/D138N/D98Y/E176V/N87E/Q94N/R180L/T167S/W171L/Y91S); assay: Competitive peptide binding assay, CIR-B4801; settings: HMy2.CIR-B4801 cells, reference Cy5-[…], class from inhibition at 5 and 15 μM, flow cytometry MFI; read-out: Binding affinity with HLA-B4801
Procedure: as §1

[5] = biological target: T1, HLA-B0702 (Homo sapiens, UniProt P01889); assay: Competitive peptide binding assay, CIR-B0702; settings: HMy2.CIR-B0702 cells, reference Cy5-[…], class from inhibition at 5 and 15 μM, flow cytometry MFI
T1 construct: expressed in transfected cells; host or cells: HMy2.CIR
Procedure: as §1

[6] = biological target: HLA-B5101 (Homo sapiens, UniProt P01889, A329T/A93T/A95T/C349S/D138N/D201E/D98Y/E187L/E204Q/E69T/G107R/I218V/K202T/L105A/L119W/N104I/Q94N/R106L/R155S/R180L/S101N/S121T/S35A/S48A/V306I/V36M/Y195H/Y91F); assay: Competitive peptide binding assay, CIR-B5101; settings: HMy2.CIR-B5101 cells, reference Cy5-[…], class from inhibition at 5 and 15 μM, flow cytometry MFI; read-out: Binding affinity with HLA-B5101
Procedure: as §1

[7] = biological target: HLA-B5801 (Homo sapiens, UniProt P01889, A329T/C349S/D201E/D98Y/E176V/E187L/E204Q/E69T/G107R/I218V/I90N/K202T/L105A/L119I/N104I/N87E/Q89R/Q94S/R106L/R155S/R180L/R86G/S101N/S121R/S35A/S48A/T118I/V127L/V306I/V36M/Y140S/Y91M); assay: Competitive peptide binding assay, CIR-B5801; settings: HMy2.CIR-B5801 cells, reference Cy5-[…], class from inhibition at 5 and 15 μM, flow cytometry MFI; read-out: Binding affinity with HLA-B5801
Procedure: as §1

[8] = biological target: HLA-B5201 (Homo sapiens, UniProt P01889, A329T/A93T/A95T/C349S/D138N/D201E/D98Y/E187L/E204Q/E69T/G107R/I218V/K202T/L105A/L119W/N104I/N87E/Q94N/R106L/R155S/R180L/S101N/S121T/S35A/S48A/V306I/V36M/Y195H/Y91S); assay: Competitive peptide binding assay, CIR-B5201; settings: HMy2.CIR-B5201 cells, reference Cy5-[…], class from inhibition at 5 and 15 μM, flow cytometry MFI; read-out: Binding affinity with HLA-B5201
Procedure: as §1

[9] = biological target: HLA-B1302 (Homo sapiens, UniProt P01889, A65T/A93T/A95T/D138N/D201E/D98Y/E176V/E204Q/E69M/E70A/G107R/K202T/L105A/L119W/N104T/N87E/Q94N/R106L/R155S/R169L/R180L/S101N/S121T/S35A/S48T/V127L/V36M/Y140L/Y91S); assay: Competitive peptide binding assay, CIR-B1302; settings: HMy2.CIR-B1302 cells, reference Cy5-MMWYWGPSL, class from inhibition at 5 and 15 μM, flow cytometry MFI; read-out: Binding affinity with HLA-B1302
Procedure: as §1

[10] = biological target: HLA-C0304 (Homo sapiens, UniProt P10321, A176E/A330V/A97T/C25G/C350S/D114A/D33Y/E197K/L119I/L127V/L171W/L218V/M285V/M309V/M331V/P208H/Q277E/Q291P/R243W/R45H/S123Y/S140Y/S297R/S48A/T118I/T187L/T329A/T363A/V319A); assay: Competitive peptide binding assay, CIR-C0304; settings: HMy2.CIR-C0304 cells, reference Cy5-[…], class from inhibition at 5 and 15 μM, flow cytometry MFI; read-out: Binding affinity with HLA-C0304
Procedure: as §1

[11] = biological target: HLA-C0102 (Homo sapiens, UniProt P10321, A176E/A330V/A35S/A97T/C350S/D114A/D33F/L171W/L180R/L218V/M285V/M309V/M331V/P208H/Q277E/Q291P/R121W/R243W/R30K/S123C/S140Y/S297R/T329A/T363A/V272M/V319A); assay: Competitive peptide binding assay, CIR-C0102; settings: HMy2.CIR-C0102 cells, reference Cy5-[…], class from inhibition at 5 and 15 μM, flow cytometry MFI; read-out: Binding affinity with HLA-C0102
Procedure: as §1

[12] = biological target: HLA-C0303 (Homo sapiens, UniProt P10321, A176E/A330V/A97T/C25G/C350S/D114A/D33Y/E197K/G115R/L119I/L127V/L171W/L218V/M285V/M309V/M331V/P208H/Q277E/Q291P/R243W/R45H/S123Y/S140Y/S297R/S48A/T118I/T187L/T329A/T363A/V319A); assay: Competitive peptide binding assay, CIR-C0303; settings: HMy2.CIR-C0303 cells, reference Cy5-[…], class from inhibition at 5 and 15 μM, flow cytometry MFI; read-out: Binding affinity with HLA-C0303
Procedure: as §1

[13] = biological target: HLA-C1202 (Homo sapiens, UniProt P10321, A176E/A330V/C350S/D114A/D33Y/L171W/L180W/L218V/M285V/M309V/M331V/P208H/Q277E/Q291P/S123Y/S297R/S48A/T329A/T363A/V319A/V328M); assay: Competitive peptide binding assay, CIR-C1202; settings: HMy2.CIR-C1202 cells, reference Cy5-[…], class from inhibition at 5 and 15 μM, flow cytometry MFI; read-out: Binding affinity with HLA-C1202
Procedure: as §1

[14] = biological target: HLA-C1402 (Homo sapiens, UniProt P10321, A176E/A330V/A35S/A97T/C350S/D114A/D33S/L171W/L180R/L218V/M285V/M309V/M331V/P208H/Q277E/Q291P/R121W/R243W/S123F/S297R/S48A/T329A/T363A/V319A); assay: Competitive peptide binding assay, CIR-C1402; settings: HMy2.CIR-C1402 cells, reference Cy5-[…], class from inhibition at 5 and 15 μM, flow cytometry MFI; read-out: Binding affinity with HLA-C1402
Procedure: as §1

[15] = biological target: HLA-C1502 (Homo sapiens, UniProt P10321, A176E/A330V/A97T/C350S/D114A/D33Y/K90N/L119I/L171W/L218V/M285V/M309V/M331V/N104K/P208H/Q277E/Q291P/R45H/S101N/S123Y/S140L/S297R/S48A/T118I/T329A/T363A/V319A/V328M/Y137H); assay: Competitive peptide binding assay, CIR-C1502; settings: HMy2.CIR-C1502 cells, reference Cy5-[…], class from inhibition at 5 and 15 μM, flow cytometry MFI; read-out: Binding affinity with HLA-C1502
Procedure: as §1

[16] = biological target: HLA-C0702 (Homo sapiens, UniProt P10321); assay: Competitive peptide binding assay, CIR-C0702
[17] = biological target: HLA-C0302 (Homo sapiens, UniProt P10321, A176E/A330V/A97T/C25G/C350S/D114A/D33Y/E197K/L127V/L171W/L218V/M285V/M309V/M331V/P208H/Q277E/Q291P/R243W/R45H/S123Y/S297R/S48A/T118I/T187L/T329A/T363A/V319A); assay: Competitive peptide binding assay, CIR-C0302; settings: HMy2.CIR-C0302 cells, reference Cy5-[…], class from inhibition at 5 and 15 μM, flow cytometry MFI; read-out: Binding affinity with HLA-C0302
Procedure: as §1

[18] = biological target: HLA-C0801 (Homo sapiens, UniProt P10321, A176T/A330V/A97T/C350S/D114A/D138N/D33Y/E201K/E299G/L171W/L218V/M285V/M309V/M331V/P208H/Q277E/Q291P/R59Q/S123Y/S140F/S297R/S48A/T329A/T363A/V319A/V328M); assay: Competitive peptide binding assay, CIR-C0801; settings: HMy2.CIR-C0801 cells, reference Cy5-[…], class from inhibition at 5 and 15 μM, flow cytometry MFI; read-out: Binding affinity with HLA-C0801
Procedure: as §1

[19] = biological target: HLA-C0602 (Homo sapiens, UniProt P10321, A176E/A330V/C350S/L171W/L180W/L218V/M285V/M309V/M331V/N104K/P208H/Q277E/Q291P/R121W/S101N/S123Y/S297R/T329A/T363A/V319A/V328M); assay: Competitive peptide binding assay, CIR-C0602
[20] = biological target: HLA-C0701 (Homo sapiens, UniProt P10321, K90N/S123Y); assay: Competitive peptide binding assay, CIR-C0701; settings: HMy2.CIR-C0701 cells, reference Cy5-[…], class from inhibition at 5 and 15 μM, flow cytometry MFI; read-out: Binding affinity with HLA-C 0701
Procedure: as §1

Structure (SMILES) | IC50 [6] | IC50 [8] | IC50 [11] | IC50 [12] | IC50 [15] | IC50 [16] | IC50 [18] | other results
CC[C@H](C)[C@H](NC(=O)CNC(=O)[C@H](CC(=O)O)NC(=O)[C@H](CCCCN)NC(=O)[C@H](CC(N)=O)NC(=O)[C@H](C)NC(=O)CN)C(=O)N[C@H](C(=O)N[C@@H](Cc1c[nH]c2ccccc12)C(=O)O)[C@@H](C)CC [Epitope Y301] (H-GANKDGIIW-OH; N-terminus and C-terminus assumed) | > 15 µM | > 15 µM |  |  |  |  |  | IC50 [1]: > 15 µM; IC50 [2]: 5 to 15 µM; IC50 [3]: > 15 µM; IC50 [4]: > 15 µM; IC50 [5]: 5 to 15 µM; IC50 [7]: < 5 µM; IC50 [9]: > 15 µM
CC(C)C[C@H](NC(=O)[C@H](CCC(N)=O)NC(=O)[C@H](CC(=O)O)NC(=O)[C@H](C)NC(=O)[C@@H](N)Cc1c[nH]cn1)C(=O)N[C@H](C(=O)N1CCC[C@H]1C(=O)N[C@H](C(=O)N[C@@H](Cc1c[nH]c2ccccc12)C(=O)O)[C@@H](C)O)[C@@H](C)O [Epitope Y313] (H-HADQLTPTW-OH; N-terminus and C-terminus assumed) | > 15 µM | 5 to 15 µM |  |  |  |  |  | 
CC(C)C[C@H](NC(=O)[C@H](CCC(=O)O)NC(=O)[C@H](Cc1ccccc1)NC(=O)[C@H](CO)NC(=O)[C@H](CC(C)C)NC(=O)[C@@H](NC(=O)[C@@H](NC(=O)[C@@H](NC(=O)[C@H](CCCNC(=N)N)NC(=O)[C@@H](N)Cc1ccc(O)cc1)C(C)C)C(C)C)C(C)C)C(=O)O [Epitope M156] (H-YRVVVLSFEL-OH; N-terminus and C-terminus assumed) |  |  | 5 to 15 µM | > 15 µM |  |  |  | IC50 [10]: > 15 µM; IC50 [13]: > 15 µM; IC50 [14]: > 15 µM
C[C@H](NC(=O)[C@H](CO)NC(=O)[C@H](CO)NC(=O)[C@@H](N)Cc1ccc(O)cc1)C(=O)N[C@@H](CC(N)=O)C(=O)N[C@@H](CC(N)=O)C(=O)N[C@@H](CS)C(=O)N[C@H](C(=O)N[C@@H](Cc1ccccc1)C(=O)O)[C@@H](C)O [Epitope M64] (H-YSSANNCTF-OH; N-terminus and C-terminus assumed) |  |  | > 15 µM | > 15 µM | < 5 µM | > 15 µM | > 15 µM | IC50 [17]: 5 to 15 µM
CC(C)[C@H](NC(=O)[C@@H](N)Cc1ccccc1)C(=O)N[C@@H](CO)C(=O)N[C@@H](CC(N)=O)C(=O)NCC(=O)N[C@H](C(=O)N[C@@H](Cc1c[nH]cn1)C(=O)N[C@@H](Cc1c[nH]c2ccccc12)C(=O)N[C@@H](Cc1ccccc1)C(=O)O)[C@@H](C)O [Epitope M68] (H-FVSNGTHWF-OH; N-terminus and C-terminus assumed) |  |  |  |  | 5 to 15 µM | > 15 µM | > 15 µM | IC50 [19]: > 15 µM; IC50 [20]: > 15 µM
